Assay results published in patent US6479435B1, “Diaryl ethers and processes for their preparation and herbicidal and desiccant compositions containing them” (ISK Americas Incorporated, priority 1997, dated 2002).

Columns and labels:
Format in all cases: in vivo
[1] = system: Johnsongrass (Sorghum halepense, SORHA); assay: Pre-emerge greenhouse herbicide test, phytotoxicity rating; conditions: 14 days after application, rating scale 0-100
Method in brief: (§1)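 Visual 0–100 injury rating (100 = all plants dead) taken 14 days after treatment. Rates of 125–1000 g ai/ha in acetone, 187 l/ha, were sprayed onto soil one day post-sowing; pots were surface-watered to incorporate, then bottom-watered.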

[2] = system: barnyardgrass (Echinochloa crusgalli, ECHCG); assay: as above; conditions: 14 days after application, rating scale 0-100
Method in brief: as §1

[3] = system: common ragweed (Ambrosia artemisiifolia L., AMBEL); assay: as above; conditions: 14 days after application, rating scale 0-100
Method in brief: as §1

[4] = system: green foxtail (Setaria viridis, SETVI); assay: as above; conditions: 14 days after application, rating scale 0-100
Method in brief: as §1

[5] = system: ivyleaf morningglory (Ipomoea hederacea, IPOHE); assay: as above; conditions: 14 days after application, rating scale 0-100
Method in brief: as §1

[6] = system: lambsquarters (Chenopodium album, CHEAL); assay: as above; conditions: 14 days after application, rating scale 0-100
Method in brief: as §1

[7] = system: large crabgrass (Digitaria sanguinalis, DIGSA); assay: as above; conditions: 14 days after application, rating scale 0-100
Method in brief: as §1

[8] = system: redroot pigweed (Amaranthus retroflexus, AMARE); assay: as above; conditions: 14 days after application, rating scale 0-100
Method in brief: as §1

[9] = system: sicklepod (Cassia obtusifolia, CASOB); assay: as above; conditions: 14 days after application, rating scale 0-100
Method in brief: as §1

[10] = system: velvetleaf (Abutilon theophrasti, ABUTH); assay: as above; conditions: 14 days after application, rating scale 0-100
Method in brief: as §1

[11] = system: field corn (Zea mays L., var. Dekalb 535, CORN); assay: Pre-emerge greenhouse test, crop damage rating; conditions: 14 days after application, rating scale 0-100
Method in brief: as §1

[12] = system: upland rice (Oryza sp., var.Tebonnet, RICE); assay: Pre-emerge greenhouse test, crop damage rating; conditions: 14 days after application, rating scale 0-100
Method in brief: as §1

[13] = system: soybean (Glycine max L., var. Pella 86, SOY); assay: Pre-emerge greenhouse test, crop damage rating; conditions: 14 days after application, rating scale 0-100
Method in brief: as §1

[14] = system: common ragweed (Ambrosia artemisiifolia L., AMBEL); assay: Post-emerge greenhouse herbicide test, phytotoxicity rating; conditions: 14 days after application
Method in brief: (§2)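 Scores use a 0 (no damage) to 100 (complete kill) scale, taken 14 days after a foliar spray. Acetone solutions with 0.25% v/v non-ionic surfactant were applied by track sprayer at 187 l/ha and 63-1000 g ai/ha to bottom-watered 2-3 leaf plants.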

[15] = system: Johnsongrass (Sorghum halepense, SORHA); assay: as above; conditions: 14 days after application
Method in brief: as §2

[16] = system: barnyardgrass (Echinochloa crusgalli, ECHCG); assay: as above; conditions: 14 days after application
Method in brief: as §2

[17] = system: green foxtail (Setaria viridis, SETVI); assay: as above; conditions: 14 days after application
Method in brief: as §2

[18] = system: ivyleaf morningglory (Ipomoea hederacea, IPOHE); assay: as above; conditions: 14 days after application
Method in brief: as §2

[19] = system: lambsquarters (Chenopodium album, CHEAL); assay: as above; conditions: 14 days after application
Method in brief: as §2

[20] = system: large crabgrass (Digitaria sanguinalis, DIGSA); assay: as above; conditions: 14 days after application
Method in brief: as §2

[21] = system: redroot pigweed (Amaranthus retroflexus, AMARE); assay: as above; conditions: 14 days after application
Method in brief: as §2

[22] = system: sicklepod (Cassia obtusifolia, CASOB); assay: as above; conditions: 14 days after application
Method in brief: as §2

[23] = system: velvetleaf (Abutilon theophrasti, ABUTH); assay: as above; conditions: 14 days after application
Method in brief: as §2

[24] = system: field corn (Zea mays L., var. Dekalb 535, CORN); assay: Post-emerge greenhouse test, crop damage rating; conditions: 14 days after application
Method in brief: as §2

[25] = system: upland rice (Oryza sp., var.Tebonnet, RICE); assay: Post-emerge greenhouse test, crop damage rating; conditions: 14 days after application
Method in brief: as §2

[26] = system: soybean (Glycine max L., var. Pella 86, SOY); assay: Post-emerge greenhouse test, crop damage rating; conditions: 14 days after application
Method in brief: as §2

Cc1nsc(Oc2cc(-n3nnn(CCCF)c3=O)c(F)cc2Cl)c1[N+](=O)[O-] [Compound 6-17]
phytotoxicity rating SORHA ([1]; 125 g ai/ha): 0 | phytotoxicity rating SORHA ([1]; 500 g ai/ha): 0 | phytotoxicity rating ECHCG ([2]; 125 g ai/ha): 0 | phytotoxicity rating ECHCG ([2]; 500 g ai/ha): 0 | phytotoxicity rating AMBEL ([3]; 125 g ai/ha): 0 | phytotoxicity rating AMBEL ([3]; 500 g ai/ha): 0 | phytotoxicity rating SETVI ([4]; 125 g ai/ha): 0 | phytotoxicity rating SETVI ([4]; 500 g ai/ha): 0 | phytotoxicity rating IPOHE ([5]; 125 g ai/ha): 0 | phytotoxicity rating IPOHE ([5]; 500 g ai/ha): 0 | phytotoxicity rating CHEAL ([6]; 125 g ai/ha): 0 | phytotoxicity rating CHEAL ([6]; 500 g ai/ha): 0 | phytotoxicity rating DIGSA ([7]; 125 g ai/ha): 0 | phytotoxicity rating DIGSA ([7]; 500 g ai/ha): 0 | phytotoxicity rating AMARE ([8]; 125 g ai/ha): 0 | phytotoxicity rating AMARE ([8]; 500 g ai/ha): 0 | phytotoxicity rating CASOB ([9]; 125 g ai/ha): 0 | phytotoxicity rating CASOB ([9]; 500 g ai/ha): 0 | phytotoxicity rating ABUTH ([10]; 125 g ai/ha): 0 | phytotoxicity rating ABUTH ([10]; 500 g ai/ha): 0 | crop damage rating CORN ([11]; 125 g ai/ha): 0 | crop damage rating CORN ([11]; 500 g ai/ha): 0 | crop damage rating RICE ([12]; 125 g ai/ha): 6 | crop damage rating RICE ([12]; 500 g ai/ha): 0 | crop damage rating SOY ([13]; 125 g ai/ha): 0 | crop damage rating SOY ([13]; 500 g ai/ha): 0 | AMBEL phytotoxicity rating (0-100) ([14]; 63 g al/ha): 0 | AMBEL phytotoxicity rating (0-100) ([14]; 500 g al/ha): 0 | SORHA phytotoxicity rating (0-100) ([15]; 63 g al/ha): 0 | SORHA phytotoxicity rating (0-100) ([15]; 500 g al/ha): 0 | ECHCG phytotoxicity rating (0-100) ([16]; 63 g al/ha): 0 | ECHCG phytotoxicity rating (0-100) ([16]; 500 g al/ha): 0 | SETVI phytotoxicity rating (0-100) ([17]; 63 g al/ha): 0 | SETVI phytotoxicity rating (0-100) ([17]; 500 g al/ha): 0 | IPOHE phytotoxicity rating (0-100) ([18]; 63 g al/ha): 0 | IPOHE phytotoxicity rating (0-100) ([18]; 500 g al/ha): 0 | CHEAL phytotoxicity rating (0-100) ([19]; 63 g al/ha): 0 | CHEAL phytotoxicity rating (0-100) ([19]; 500 g al/ha): 0 | DIGSA phytotoxicity rating (0-100) ([20]; 63 g al/ha): 0 | DIGSA phytotoxicity rating (0-100) ([20]; 500 g al/ha): 0 | AMARE phytotoxicity rating (0-100) ([21]; 63 g al/ha): 0 | AMARE phytotoxicity rating (0-100) ([21]; 500 g al/ha): 0 | CASOB phytotoxicity rating (0-100) ([22]; 63 g al/ha): 0 | CASOB phytotoxicity rating (0-100) ([22]; 500 g al/ha): 0 | ABUTH phytotoxicity rating (0-100) ([23]; 63 g al/ha): 0 | ABUTH phytotoxicity rating (0-100) ([23]; 500 g al/ha): 0 | CORN crop damage rating (0-100) ([24]; 63 g al/ha): 0 | CORN crop damage rating (0-100) ([24]; 500 g al/ha): 0 | RICE crop damage rating (0-100) ([25]; 63 g al/ha): 0 | RICE crop damage rating (0-100) ([25]; 500 g al/ha): 0 | SOY crop damage rating (0-100) ([26]; 63 g al/ha): 0 | SOY crop damage rating (0-100) ([26]; 500 g al/ha): 0

O=c1sc(=Nc2cc(Oc3ncccn3)c(Cl)cc2F)n2n1CCCC2 [Compound 7-2]
phytotoxicity rating SORHA ([1]; 125 g ai/ha): 95 | phytotoxicity rating SORHA ([1]; 500 g ai/ha): 100 | phytotoxicity rating ECHCG ([2]; 125 g ai/ha): 99 | phytotoxicity rating ECHCG ([2]; 500 g ai/ha): 100 | phytotoxicity rating AMBEL ([3]; 125 g ai/ha): 100 | phytotoxicity rating AMBEL ([3]; 500 g ai/ha): 100 | phytotoxicity rating SETVI ([4]; 125 g ai/ha): 100 | phytotoxicity rating SETVI ([4]; 500 g ai/ha): 100 | phytotoxicity rating IPOHE ([5]; 125 g ai/ha): 100 | phytotoxicity rating IPOHE ([5]; 500 g ai/ha): 100 | phytotoxicity rating CHEAL ([6]; 125 g ai/ha): 100 | phytotoxicity rating CHEAL ([6]; 500 g ai/ha): 100 | phytotoxicity rating DIGSA ([7]; 125 g ai/ha): 100 | phytotoxicity rating DIGSA ([7]; 500 g ai/ha): 100 | phytotoxicity rating AMARE ([8]; 125 g ai/ha): 100 | phytotoxicity rating AMARE ([8]; 500 g ai/ha): 100 | phytotoxicity rating CASOB ([9]; 125 g ai/ha): 60 | phytotoxicity rating CASOB ([9]; 500 g ai/ha): 100 | phytotoxicity rating ABUTH ([10]; 125 g ai/ha): 100 | phytotoxicity rating ABUTH ([10]; 500 g ai/ha): 100 | crop damage rating CORN ([11]; 125 g ai/ha): 45 | crop damage rating CORN ([11]; 500 g ai/ha): 70 | crop damage rating RICE ([12]; 125 g ai/ha): 90 | crop damage rating RICE ([12]; 500 g ai/ha): 100 | crop damage rating SOY ([13]; 125 g ai/ha): 0 | crop damage rating SOY ([13]; 500 g ai/ha): 80 | AMBEL phytotoxicity rating (0-100) ([14]; 63 g al/ha): 100 | AMBEL phytotoxicity rating (0-100) ([14]; 500 g al/ha): 100 | SORHA phytotoxicity rating (0-100) ([15]; 63 g al/ha): 60 | SORHA phytotoxicity rating (0-100) ([15]; 500 g al/ha): 100 | ECHCG phytotoxicity rating (0-100) ([16]; 63 g al/ha): 40 | ECHCG phytotoxicity rating (0-100) ([16]; 500 g al/ha): 95 | SETVI phytotoxicity rating (0-100) ([17]; 63 g al/ha): 90 | SETVI phytotoxicity rating (0-100) ([17]; 500 g al/ha): 100 | IPOHE phytotoxicity rating (0-100) ([18]; 63 g al/ha): 100 | IPOHE phytotoxicity rating (0-100) ([18]; 500 g al/ha): 100 | CHEAL phytotoxicity rating (0-100) ([19]; 63 g al/ha): 100 | CHEAL phytotoxicity rating (0-100) ([19]; 500 g al/ha): 100 | DIGSA phytotoxicity rating (0-100) ([20]; 63 g al/ha): 30 | DIGSA phytotoxicity rating (0-100) ([20]; 500 g al/ha): 85 | AMARE phytotoxicity rating (0-100) ([21]; 63 g al/ha): 100 | AMARE phytotoxicity rating (0-100) ([21]; 500 g al/ha): 100 | CASOB phytotoxicity rating (0-100) ([22]; 63 g al/ha): 100 | CASOB phytotoxicity rating (0-100) ([22]; 500 g al/ha): 100 | ABUTH phytotoxicity rating (0-100) ([23]; 63 g al/ha): 100 | ABUTH phytotoxicity rating (0-100) ([23]; 500 g al/ha): 100 | CORN crop damage rating (0-100) ([24]; 63 g al/ha): 35 | CORN crop damage rating (0-100) ([24]; 500 g al/ha): 90 | RICE crop damage rating (0-100) ([25]; 63 g al/ha): 80 | RICE crop damage rating (0-100) ([25]; 500 g al/ha): 95 | SOY crop damage rating (0-100) ([26]; 63 g al/ha): 95 | SOY crop damage rating (0-100) ([26]; 500 g al/ha): 100
